Active and inactive are the calls of the source. The rule behind the calls is not given here.
target: not listed separately; assay: Inhibition of yeast alpha-glucosidase using p-nitrophenyl-alpha-D-glucopyranoside as substrate preincubated with enzyme for 10 mins followed by substrate addition measured after 20 mins by spectrophotometric method; design: species or system Saccharomyces cerevisiae

Row | Structure (SMILES) | IC50
1 | O=C(C[C@@H]1C(=O)c2ccc(O)cc2O[C@H]1c1ccc(O)cc1)c1ccc(O)cc1O | 26600 nM
2 | COc1ccc(-c2coc3cc4c(c(OC)c3c2=O)OCO4)cc1 | > 200000 nM
3 | COc1ccc(C(=O)[C@@H](c2coc3cc(O)ccc3c2=O)C(c2ccc(O)cc2)c2ccc(O)cc2)c(O)c1 | 6100 nM
4 | CCCCCCCCCCCC1=C(O)C(=O)C=C(O)C1=O [EMBELIN] | 2400 nM
5 | COc1ccc(-c2coc3cc4c(c(OC)c3c2=O)OCO4)cc1OC | 178000 nM
6 | O=C(/C=C/c1ccc(O)c([C@@H]2C(=O)c3c(O)cc(O)cc3O[C@H]2c2ccc(O)cc2)c1)c1ccc(O)cc1O | 2500 nM
7 | C[C@H]1O[C@H](O[C@H]2[C@H](O)[C@@H](O)[C@@H](O[C@H]3[C@H](O)[C@@H](O)C(O)O[C@@H]3CO)O[C@@H]2CO)[C@H](O)[C@@H](O)[C@@H]1N[C@H]1C=C(CO)[C@@H](O)[C@H](O)[C@H]1O (stereo partly drawn) [ACARBOSE] | 93600 nM
8 | O=C(/C=C/c1ccc2oc(-c3ccc(O)cc3)c(C(=O)c3ccc(O)cc3O)c2c1)c1ccc(O)cc1O | 3200 nM
9 | O=C(/C=C/c1ccc2c(c1)[C@@H](C(=O)c1ccc(O)cc1O)[C@H](c1ccc(O)cc1)O2)c1ccc(O)cc1O | 5600 nM

The next compounds have a lower IC50 than those just listed; values first:

Row | IC50 | Structure (SMILES)
10 | 2300 nM | O=C(/C=C/c1ccc2c(c1)[C@H](C(=O)c1ccc(O)cc1O)[C@@H](c1ccc(O)cc1)O2)c1ccc(O)cc1O
11 | 1300 nM | O=C(/C=C/c1ccc(O)cc1)c1c(O)cc(O)c2c(C(=O)c3ccc(O)cc3O)c(-c3ccc(O)cc3)oc12
12 | 1400 nM | CCCCCCCCCCCCCCCC1=C(O)C(=O)C2=C(Oc3cc(O)c4c(c3C2(C)C)O[C@@H](c2ccc(O)c(O)c2)[C@H](O)C4)C1=O
13 | 1800 nM | CCCCCCCCCCCCCC1=C(O)C(=O)C=C(O)C1=O [Rapanone]
14 | 1600 nM | CCCCCCCCCCCCCC1=C(O)C(=O)C2=C(Oc3cc(O)c4c(c3C2(C)C)O[C@@H](c2ccc(O)c(O)c2)[C@H](O)C4)C1=O
15 | 2000 nM | CCCCCCCCCCCC1=C(O)C(=O)C2=C(Oc3cc(O)c4c(c3C2(C)C)O[C@@H](c2ccc(O)c(O)c2)[C@H](O)C4)C1=O
16 | 400 nM | O=C(CCc1ccc(O)cc1)c1c(O)cc(O)c2c(C(=O)c3ccc(O)cc3O)c(-c3ccc(O)cc3)oc12

target: not listed separately; assay: Non-competitive inhibition of yeast alpha-glucosidase using p-nitrophenyl-alpha-D-glucopyranoside as substrate by Lineweaver-Burk double reciprocal plot analysis; design: species or system Saccharomyces cerevisiae

Row | Ki | Structure (SMILES)
17 | 3400 nM | O=C(CCc1ccc(O)cc1)c1c(O)cc(O)c2c(C(=O)c3ccc(O)cc3O)c(-c3ccc(O)cc3)oc12

system: Saccharomyces cerevisiae; assay: Non-competitive inhibition of yeast alpha-glucosidase assessed as decrease in Vmax with constant Km using p-nitrophenyl-alpha-D-glucopyranoside as substrate by Lineweaver-Burk double reciprocal plot analysis

Row | inhibition | Structure (SMILES)
18 | Active | O=C(CCc1ccc(O)cc1)c1c(O)cc(O)c2c(C(=O)c3ccc(O)cc3O)c(-c3ccc(O)cc3)oc12

From ChEMBL document CHEMBL5120781, “α-Glucosidase Inhibitors from the Stems of Knema globularia” (J Nat Prod, 2022)
